Experimental data published in patent publication US12509460B2 (Skyhawk Therapeutics, Inc., priority 2019, dated 2025).
Where two headings read alike, the source gives them in different places.

Key:
[1] = test system: mHTT protein in GM04724 (CAG 70/20) Huntington's disease patient lymphoblast cells; assay: mHTT protein assay, 2B7-MW1 assay via Mesoscale Discovery (MSD); assay type: cell-based, human; conditions: GM04724 Huntington's disease patient lymphoblasts
Procedure, shortened: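 Patient lymphoblasts treated 48 h with compound from 10 μM to 0.6 nM. mHTT quantified by MSD 2B7-MW1 immunoassay, whose signal depends on polyQ expansion and HTT size. Viability measured on a replicate plate by CellTiter Glo.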

[2] = test system: SMN protein in spinal muscular atrophy (SMA) patient fibroblasts (GM03813, Coriell); assay: SMN protein assay, Mesoscale Discovery (MSD); assay type: cell-based, human; conditions: SMA patient fibroblasts GM03813, 48 hours, MSD; read-out: SMN2 protein EC50
Procedure, shortened: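 SMA patient fibroblasts (GM03813) seeded at 7000 cells/well and exposed to compound at 2.5 μM to 0.6 nM for 48 hours. Lysates assayed for SMN by MSD immunoassay, with absolute SMN amount calculated from a per-plate SMN standard curve (1 μg/ml to 19.5 pg/ml).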

[3] = test system: MDR1-MDCK cell monolayers; assay: Blood-brain-barrier (BBB) penetration potential via MDCK-MDR1 permeability assay; conditions: for MDCK-MDR1: % Recov A-B / MDCK-MDR1: Papp A-B: A-B direction; for MDCK-MDR1: % Recov B-A / MDCK-MDR1: Papp B-A: B-A direction; for MDCK-MDR1: Efflux: efflux ratio
[4] = test system: Huntingtin (HTT) transcripts, cryptic exon within intron 49, in GM04724 (CAG 70/20) Huntington's disease patient lymphoblasts; assay: Quantitative splicing assay (HTT), qPCR; assay type: cell-based, human; conditions: 24 h, qPCR, read-out: HTT Splicing: E49-50 EC50
Procedure, shortened: (§1)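 Patient lymphoblasts (50,000 cells/well) dosed immediately after plating for 24 h at 2.5 uM to 0.15 nM in 0.1% DMSO. Lysed, cDNA made directly from cells, and inclusion of the intron 49 cryptic exon quantified by TaqMan qPCR.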

[5] = test system: SMN FL and SMN Δ7 in spinal muscular atrophy (SMA) patient fibroblasts (GM03813, Coriell); assay: Quantitative splicing assay (SMN), qPCR; assay type: cell-based, human; conditions: Homo sapiens, Fibroblast, 24 h, SMA patient fibroblasts GM03813, 24 h, qPCR; read-out: SMN2 Splicing FL EC50
Protocol: Spinal muscular atrophy (SMA) patient fibroblasts (GM03813, Coriell) are plated in 96-well plates at 50,000 cells/well. […] Treated cells are lysed and cDNA synthesized using the Fast Advanced Cells-to-Ct kit (Thermofisher A35378) according to the manufacturer's instructions. 2 μL of each cDNA are used in qPCR reactions. […] Reactions are run in a Quant Studio 6 qPCR instrument with default settings.

MDR1 [6] = assay: Blood-brain-barrier (BBB) penetration potential via MDCK-MDR1 permeability assay; conditions: dog, MDCK-MDR1, pH 7.4, MDCK-MDR1: Efflux, efflux ratio
MDR1 (P-gp) [7] = assay: as above; conditions: dog
[8] = test system: MDR1-MDCK cell monolayers; conditions: dog, MDCK-MDR1, 120 min, 5 μM, pH 7.4
MDR1 [9] = assay: in vitro; conditions: dog, MDCK-MDR1, pH 7.4
MDR1 (P-gp) [10] = assay: in vitro; conditions: dog, MDCK-MDR1, pH 7.4
[11] = Quantitative splicing assay (HTT), qPCR; assay type: cell-based, human; conditions: Homo sapiens; GM04724 lymphoblasts, 24 h, qPCR; read-out: HTT Splicing: E49-50 EC50
Procedure, shortened: as §1

Compound	EC50 [1]	EC50 [2]	MDCK-MDR1: % Recov A-B [3]	MDCK-MDR1: Papp A-B [3]	MDCK-MDR1: % Recov B-A [3]	MDCK-MDR1: Papp B-A [3]	MDCK-MDR1: Efflux [3]	EC50 [4]	EC50 [5]	efflux ratio at 120 min, 5 μM (MDR1 [6])	Papp A→B at 120 min, 5 μM (MDR1 (P-gp) [7]; MDCK-MDR1, pH 7.4, MDCK-MDR1: Papp A-B, A-B direction)	Papp B→A at 120 min, 5 μM (MDR1 (P-gp) [7]; MDCK-MDR1, pH 7.4, MDCK-MDR1: Papp B-A, B-A direction)	MDCK-MDR1: % Recov A-B [8]	MDCK-MDR1: % Recov B-A [8]	efflux ratio at 120 min, 5 μM (MDR1 [9])	Papp A→B at 120 min, 5 μM (MDR1 (P-gp) [10])	Papp B→A at 120 min, 5 μM (MDR1 (P-gp) [10])	EC50 [11]
CN(c1ccc(-c2ccc(-c3cnn(C)c3)cc2O)nn1)C1CC2COCC(N2)C1F (single isomer, unassigned) [Compound 80B]	16 to 50 nM	101 to 500 nM	76%	6.01 10^−6, cm/s	87%	40.8 10^−6, cm/s	7	51 to 100 nM	–	–	–	–	–	–	–	–	–	–
CN(c1ccc(-c2ccc(-c3cn[nH]c3)cc2O)nn1)C1CC2COCC(N2)C1F (stereo not drawn) [Compound 8B]	0.01 to 15 nM	16 to 50 nM	84%	2.04 10^−6, cm/s	98%	39.1 10^−6, cm/s	19	0.01 to 15 nM	16 to 50 nM	–	–	–	–	–	–	–	–	–
CN(c1ccc(-c2ccc(-c3cn[nH]c3)cc2O)nn1)C1CC2COCC(N2)C1F (stereo not drawn) [Compound 8A]	0.01 to 15 nM	101 to 500 nM	87%	–	93%	–	–	16 to 50 nM	–	36	16.7 nm/s	593 nm/s	–	–	–	–	–	–
Cn1cnc2cc(-c3ccc(N(C4CC4)[C@@H]4C[C@H]5CC[C@H](N5)[C@@H]4F)nn3)c(O)cc2c1=O [Compound 56A, 7-(6-(cyclopropyl((1S,2S,3R,5R)-2-fluoro-8-azabicyclo[3.2.1]octan-3-yl)amino)pyridazin-3-yl)-6-hydroxy-3-methylquinazolin-4(3H)-one]	101 to 500 nM	101 to 500 nM	–	–	–	–	–	–	–	–	–	–	83%	83%	56	9.2 nm/s	514 nm/s	10 to 501 nM
